{
  "source": "paper PMC12363518",
  "about": "“Azobenzene-Modified Temperature-Responsive Short Elastin-like Peptides for Photo-Controlled Phase Transition” (ACS Synthetic Biology, 2025)",
  "key": {"[1]": {"test": "Turbidity measurement (OD600) of temperature-dependent phase separation, Tt", "type": "physicochemical", "protocol": "The ability of the ELP–azobenzene conjugates to self-assemble was investigated by using turbidity measurements. In addition, we evaluated whether the photoisomerization of the azobenzene moieties induced differences in the aggregation ability of these analogues. Each peptide analogue was dissolved in PBS at different concentrations according to its water solubility. To quantitatively evaluate the aggregation ability, the transition temperature (T t) of the peptides was calculated from the change in optical density at a wavelength of 600 nm (OD600) associated with the increasing temperature (Table and Figure ).\nThe temperature-dependent self-assembly property of synthesized peptides was evaluated by using a JASCO V-660 spectral photometer (JASCO Co.). Each peptide was dissolved in PBS buffer or phosphate buffer solutions at various concentrations. Three types of phosphate buffers with the same ionic strength (μ = 0.100) but different pH (pH 7.4, 2.1, and 11.5) were prepared: phosphate buffer (pH 7.4, 29.4 mM Na2HPO4, 11.7 mM NaH2PO4), phosphate buffer (pH 2.1, 10.0 mM NaH2PO4, 10.5 mM phosphoric acid), and phosphate buffer (pH 11.5, 9.58 mM Na3PO4, 14.2 mM Na2HPO4). Turbidity was measured at 600 nm with increasing or decreasing temperature at a rate of 0.5 °C/min from 5 °C. The measurements were performed for the dark-adapted solution and after successive irradiation with UV light, visible light, and UV light. Each assay was repeated three times with different peptide solutions that were prepared separately. The phase separation property was described by the phase transition temperature (T t), which is the temperature at which the turbidity of the solution reaches half its maximum value."}, "[2]": {"test": "Thermal isomerization in the dark and photostationary state, followed by UV–vis spectroscopy", "type": "physicochemical", "protocol": "The thermal stability of the ELP–azobenzene conjugates was also investigated by using UV–vis spectroscopy. After measurements under “UV–vis–UV” conditions, each peptide solution was incubated in the dark, and spectral changes were monitored over time (Figure ). […] These findings indicate that the photoswitching behavior of this peptide was more readily controllable than that of the other analogues.\nAdditionally, the isomerization of Azb-2(K-F2) to a cis-enriched state was induced by irradiation with UV-A light (365 nm), which is a commercially available light source (Figure S4). […] On the other hand, when an LED light with a higher irradiance than that used for spectrum measurements was used as the light source, Azb-2(K-F2) reached a photostationary state in approximately 5 min (Figure S4B). Overall, based on the experimental results, Azb-2(K-F2) appears to be a promising easy-to-handle peptide with both temperature and photoresponsiveness.\nThe synthesized ELP–azobenzene conjugates were dissolved in PBS buffer (137 mM NaCl, 2.68 mM KCl, 10 mM Na2HPO4, and 2 mM KH2PO4, pH 7.4) to prepare 50 μM solutions. The time-dependent UV–vis spectra of each conjugate were recorded using a JASCO V-660 spectral photometer (JASCO Co., Tokyo) in a quartz cell (optical path length: 10 mm, volume: 400 μL). […] Initially, the absorption spectra of the dark-adapted solution of the ELP–azobenzene conjugate were measured to determine the irradiation wavelength corresponding to its π–π* band. Subsequently, the ELP–azobenzene conjugate solution was irradiated with light corresponding to the π–π* band for 60 min and the absorption spectra were recorded every 10 min. Next, the peptide solution was irradiated with visible light corresponding to the n–π* band for 60 min and the absorption spectra were recorded every 10 min. The peptide solution was then irradiated again with UV light for 60 min and the absorption spectra were recorded every 10 min. Finally, the peptide solution was incubated in the dark conditions and the absorption spectra were recorded every 1 h. […]"}},
  "note": "Numbered stars: 1 amine (or outer) side, 2 acyl side, 3 side chain; on linkers, the order of the positions; unused ones are H or OH. Bridge positions count the residues as written; N and C are the ends. Peptide text beside a SMILES is read from it. I, II: the chains in the order shown. X1 = O=C(c1ccc(N=Nc2ccc(C(=O)[*:2])cc2)cc1)[*:1]",
  "data": [
    {"molecule": "CC(C)[C@H](NC(=O)CNC(=O)[C@@H]1CCCN1C(=O)[C@H](Cc1ccccc1)NC(=O)CNC(=O)[C@@H](NC(=O)CNC(=O)[C@@H]1CCCN1C(=O)[C@H](Cc1ccccc1)NC(=O)[C@H](CCCCN)NC(=O)c1ccc(N=Nc2ccc(C(=O)N[C@@H](CCCCN)C(=O)N[C@@H](Cc3ccccc3)C(=O)N3CCC[C@H]3C(=O)NCC(=O)N[C@H](C(=O)NCC(=O)N[C@@H](Cc3ccccc3)C(=O)N3CCC[C@H]3C(=O)NCC(=O)N[C@H](C(=O)NCC(=O)O)C(C)C)C(C)C)cc2)cc1)C(C)C)C(=O)NCC(=O)O", "note": "[Azb-2(K-F2)] (I: KFPGVGFPGVG-OH / II: KFPGVGFPGVG-OH; linker I:N-II:N via X1)", "values": [
      {"measurement": "peak wavelength n–π*", "result": 430, "unit": "nm"},
      {"measurement": "Tt,UV (phase transition temperature)", "setting": "[1]; after \"UV\" conditions 1 h, PBS pH 7.4, OD600, 0.5 °C/min, Tt at half-maximal turbidity, concentrations as in Table 2, n = 3", "result": "35.08 ± 0.30", "unit": "°C"},
      {"measurement": "Tt,UV–vis (phase transition temperature)", "setting": "[1]; after \"UV–vis\" conditions 1 h, PBS pH 7.4, OD600, 0.5 °C/min, Tt at half-maximal turbidity, concentrations as in Table 2, n = 3", "result": "32.55 ± 0.67", "unit": "°C"},
      {"measurement": "Tt,UV–vis–UV (phase transition temperature)", "setting": "[1]; after \"UV–vis–UV\" conditions 1 h, PBS pH 7.4, OD600, 0.5 °C/min, Tt at half-maximal turbidity, concentrations as in Table 2, n = 3", "result": "35.94 ± 1.15", "unit": "°C"},
      {"measurement": "Tt, UV in phosphate buffer (PB)", "setting": "[1]; after UV irradiation, PB pH 7.4 (ionic strength 0.100), 3.00 mg/mL (1.27 mM), OD600", "result": "31.42 ± 0.78", "unit": "°C"},
      {"measurement": "Tt, dark in phosphate buffer (PB)", "setting": "[1]; dark-adapted, PB pH 7.4 (ionic strength 0.100), Azb-2(K-F2) 3.00 mg/mL (1.27 mM), 2(D-F2)-Azb 1.50 mg/mL (0.66 mM), OD600", "result": "27.57 ± 0.18", "unit": "°C"},
      {"measurement": "Tt,dark (phase transition temperature)", "setting": "[1]; dark-adapted, PBS pH 7.4, OD600, 0.5 °C/min from 5 °C, Tt at half-maximal turbidity, F2-Azb-F2 100 μM, F2-Azb-F2-NH2 50 μM, Azb-2(K-F2) 1.27 mM, 2(F2-D)-Azb 0.66 mM, n = 3 separately prepared solutions", "result": "32.09 ± 0.14", "unit": "°C"},
      {"measurement": "phase separation in acidic phosphate buffer", "setting": "[1]; phosphate buffer pH 2.1, Azb-2(K-F2) 1.27 mM, 2(F2-D)-Azb 0.66 mM, turbidity OD600", "result": "did not show phase separation"},
      {"measurement": "phase separation in neutral phosphate buffer", "setting": "[1]; phosphate buffer pH 7.4, Azb-2(K-F2) 1.27 mM, 2(F2-D)-Azb 0.66 mM, turbidity OD600", "result": "underwent thermoresponsive phase separation"},
      {"measurement": "phase separation in basic phosphate buffer", "setting": "[1]; phosphate buffer pH 11.5, Azb-2(K-F2) 1.27 mM, 2(F2-D)-Azb 0.66 mM, turbidity OD600", "result": "did not show phase separation"},
      {"measurement": "thermal stability of the cis-enriched state, 12 h", "setting": "[2]; 37 °C for 12 h, light-protected, 50 μM in PBS, UV–vis spectra", "result": "remained in a cis-enriched state"},
      {"measurement": "time to reach the photostationary state with LED light", "setting": "[2]; UV-A 365 nm LED of higher irradiance than for the spectrum measurements", "result": "approximately 5 min"},
      {"measurement": "thermal stability of the cis-enriched state, 3 days", "setting": "[2]; dark, after 3 days, UV–vis spectra (Figure S3)", "result": "retained its cis-isomer-enriched state"}
    ]}
  ]
}
